Tests used:
[1] = system: STAT5 Y694 phosphorylation; test: HTRF experiment: STAT5 Y694 phosphorylation in Hela cells stimulated with human interferon beta; type: cell-based; conditions: 2 hours pretreatment, 10 nM human interferon beta 30 minutes
Experimental: Example of Effect 3: HTRF Experiment
Human Interferon 3 (IFN-0) (GenScript, Cat #P01574), STAT5 Y694 phosphorylation detection kit (STAT5 phospho-Y694 kit) (Cisbio; Cat #64AT5PEG).
Hela cells (ATCC American Standard Culture Center, CCL-2) were cultured in a 96-well plate at a density of 3×10^4 cells/well with DMEM medium containing 5% fetal bovine serum and maintained at 37° C. in a humidified incubator with 5% carbon dioxide overnight. On the second day, the original DMEM medium in the 96-well plate was sucked dry, and an equal volume of medium containing different concentrations of compounds (the mother liquor of the compound prepared by dimethyl sulfoxide was diluted in the medium at the required concentration) was added for pretreatment for 2 hours, and then it was placed in an incubator at 37° C. Then human interferon beta with a final concentration of 10 nM was added to stimulate, and it was gently shaken to mix well and then placed in an incubator at 37° C. for 30 minutes.
The medium was removed, an appropriate volume of PBS was added to wash, and then it was sucked dry. Then 40 microliters of 1× Lysis Buffer was added to each well and it was stood for 30 minutes at room temperature (1 ml 1× lysate preparation: 740 μl ddH2O was added to 250 μl 4× lysate and 10 μl Blocking reagent and it was mixed thoroughly). After 30 minutes, the cells were repeatedly blown until the lysis solution was not viscous (avoiding blowing out bubbles) to achieve sufficient lysis.
After overnight incubation, the signals of 665 nm and 620 nm were detected in a multifunctional microplate reader. The calculation formula for the detection of STAT5 Y694 phosphorylation is: Ratio=[(signal 665 nm)/(signal 620 nm)]×10^4. Treatment with dimethyl sulfoxide alone was the baseline control (Ratiobase), and the human interferon β stimulation without addition of the compound was the STAT5 Y694 full phosphorylation activation control (Ratiostimulation), the inhibition rate of STAT5 Y694 phosphorylation of different samples was normalized: Inhibition rate=[1−(RatioExperiment−Ratiobase)/(Ratiostimulation−Ratiobase)]*100.

[2] = system: STAT5 Y694 phosphorylation; test: Protein electrophoresis and blotting of STAT5 Y694 phosphorylation in Jurkat cells stimulated with human interferon beta; type: cell-based; conditions: for Inhibiting Ratio (0% for vehicle control): 1 hour pretreatment, 20 ng/ml human interferon beta 30 minutes, pSTAT5/GAPDH; for Example of Effect 1: Inhibiting Ability (Protein Electrophoresis and Blotting): observed pSTAT5 bands at 10 μM and 100 μM
Experimental: Example of Effect 1: Protein Electrophoresis and Blotting Experiment
Standard protein electrophoresis and chemiluminescence imaging equipment (Bio-Rad);
Protein lysate RIPA (Lianke Biological; Cat #WB020); Western blot transfer membrane PVDF (Millipore; Cat #IPVH00010);
Jurkat cells (ATCC American Standard Culture Center, TIB152) were cultured in a 6-well plate at a density of 1×10^6/ml with RPMI medium […] 10% fetal bovine serum in a humidified incubator at 37° C. and maintained at 5% carbon dioxide overnight. On the second day, the cells were pretreated with compounds of different concentrations (the mother liquor of the compound prepared by dimethyl sulfoxide was diluted in the medium at the required concentration) for 1 hour, and then stimulated with 20 ng/ml human interferon beta for 30 minutes, it was mixed thoroughly and then placed in an incubator at 37° C. environment. […] Then an appropriate volume of RIPA Lysis Solution was added, it was mixed well, and placed on ice for 1 hour, inverted and mixed several times in the middle. Then, the cell lysate was centrifuged at 12000 rpm at 4° C. for 10 minutes, and the supernatant was transferred to another test tube, aliquoted and stored at −20° C. until use.
An equal volume of protein lysate was mixed with an appropriate 6-fold protein loading buffer (Biyun Tian Biochemical Company P0015F), and the mixture was heated at 95 degrees for 10 minutes, after full denaturation, the protein sample was added to the polyacrylamide gel (self-made, raw material purchased from Soleibao Biotechnology Company A1010, 30% acrylamide solution), and electrophoresis was performed at the appropriate voltage for 1 hour, until the strips were fully separated. It was transferred to a polyvinylidene fluoride membrane according to standard procedures, and blocked with 5% skim milk for 1 hour, and the specified antibody was added, and it was diluted 1:1000 in 3% bovine serum albumin, and it was incubated overnight for four degrees. It was thoroughly rinsed, incubated with the secondary antibody, exposed to chemiluminescence and signals were collected. ImageJ software was used to quantify the obtained chemiluminescence results. The same area was selected, the gray values of STAT5 phosphorylation band and GAPDH band of each sample were analyzed, and the ratio of pSTAT5/GAPDH level was calculated. The value of the solvent-treated sample was 100%, and the remaining samples were converted into relative data in the same proportion, that is, the percentage corresponding to the solvent sample. […] The solvent control group was the same as the test compound group except that DMSO was used instead of the DMSO solution of the test compound. N1 (Pimozide) was a specific positive control.

Row | SMILES | Example of Effect 3: Inhibiting Ratio@10 μM (HTRF Experiment) [1] [%] | Inhibiting Ratio (0% for vehicle control) ([2]; 1 μM) [%] | Inhibiting Ratio (0% for vehicle control) ([2]; 10 μM) [%] | Inhibiting Ratio (0% for vehicle control) ([2]; 100 μM) [%] | Example of Effect 1: Inhibiting Ability (Protein Electrophoresis and Blotting) [2]
1 | CS(=O)(=O)Nc1ccc(CC(=O)N2CCC(n3c(=O)[nH]c4ccccc43)CC2)cc1 [GEN1-110] | −10.49 |  |  |  | 
2 | O=C(Cc1ccc2ncccc2c1)N1CCC(n2c(=O)[nH]c3cc(Cl)ccc32)CC1 [GEN1-294] | 1.85 |  |  |  | 
3 | COc1ccccc1CC(=O)N1CCC(n2c(=O)[nH]c3ccccc32)CC1 [GEN1-271] | 9.33 |  |  |  | 
4 | O=C(Cc1ccc(C(F)(F)F)cc1)N1CCC(N2CC(=S)Nc3ccccc32)CC1 [GEN1-133] | 31.27 |  |  |  | 
5 | O=C(Cc1ccc(C(F)(F)F)cc1)N1CCC(n2c(=O)[nH]c3ccc(-c4ccccc4)c(C(F)(F)F)c32)CC1 [GEN1-277, 6-phenyl-7-(trifluoromethyl)-1-(1-(2-(4-(trifluoromethyl)phenyl)acetyl)piperidin-4-yl)-1H-benzo[d]imidazol-2(3H)-one] | 6.52 |  |  |  | 
6 | Cc1cccc2[nH]c(=O)n(C3CCN(C(=O)Cc4ccc(C(F)(F)F)cc4)CC3)c12 [GEN1-282] | 49.93 |  |  |  | 
7 | O=C(Cc1ccc(C(F)(F)F)cc1)N1CCC(n2c(=O)[nH]c3cc(C(F)(F)F)ccc32)CC1 [GEN1-005, 5-(trifluoromethyl)-1-(1-(2-(4-(trifluoromethyl)phenyl)acetyl)piperidin-4-yl)-1H-benzo[d]imidazole-2(3H)-one] |  | 28.0 | 44.4 | 95.6 | +
8 | O=C(Cc1ccc(C(F)(F)F)cc1)N1CCC(n2c(=O)oc3ccccc32)CC1 [Example P8, 3-(1-(2-(4-(trifluoromethyl)phenyl)acetyl)piperidin-4-yl)benzo[d]oxazole-2(3H)-one] |  |  |  |  | −
9 | O=C(Cc1ccc(C(F)(F)F)cc1)N1CCC(n2c(=O)[nH]c3ccc(C(F)(F)F)cc32)CC1 [GEN1-009, 6-(trifluoromethyl)-1-(1-(2-(4-(trifluoromethyl)phenyl)acetyl)piperidin-4-yl)-1H-benzo[d]imidazole-2(3H)-one] |  |  |  |  | +
10 | COc1ccc2c(c1)[nH]c(=O)n2C1CCN(C(=O)Cc2ccc(C(F)(F)F)cc2)CC1 [GEN1-007, 5-methoxy-1-(1-(2-(4-(trifluoromethyl)phenyl)acetyl)piperidin-4-yl)-1H-benzo[d]imidazole-2(3H)-one] |  | 42.4 | 54.8 | 96.6 | +
11 | O=C(Cc1ccc(C(F)(F)F)cc1)N[C@H]1C[C@H](n2c(=O)[nH]c3ccccc32)C1 [GEN1-025, N-((1r,3r)-3-(2-oxo-2,3-dihydro-1H-benzo[d]imidazol-1-yl)cyclobutyl)-2-(4-(trifluoromethyl)phenyl)acetamide] |  |  |  |  | −
12 | CC(C)(C)c1ccc(CC(=O)N2CCC(N3CC(=O)Nc4ccccc43)CC2)cc1 [GEN1-122, 4-(1-(2-(4-(tert-butyl)phenyl)acetyl)piperidin-4-yl)-3,4-dihydroquinoxaline-2(1H)-one] |  |  |  |  | +
13 | O=C(Cc1ccc(C(F)(F)F)cc1)N1CC(n2c(=O)[nH]c3ccccc32)C1 [GEN1-023, 1-(1-(2-(4-(trifluoromethyl)phenyl)acetyl)azetidin-3-yl)-1H-benzo[d]imidazole-2(3H)-one] |  | 9.4 | 33.3 | 93.6 | +
14 | O=C(Cc1ccccc1C(F)(F)F)N1CCC(n2c(=O)[nH]c3ccccc32)CC1 [GEN1-030, 1-(1-(2-(2-(trifluoromethyl)phenyl)acetyl)piperidin-4-yl)-1H-benzo[d]imidazole-2(3H)-one] |  | 15.7 | 19.4 | 94.0 | −
15 | O=C1CN(C2CCN(C(=O)Cc3ccc(C(F)(F)F)cc3)CC2)c2c(cccc2[N+](=O)[O-])N1 [GEN1-101, 5-nitro-4-(1-(2-(4-(trifluoromethyl)phenyl)acetyl)piperidin-4-yl)-3,4-dihydroquinoxaline-2(1H)-one] |  |  |  |  | +
16 | O=C(Cc1ccccc1)N1CCC(n2c(=O)[nH]c3ccccc32)CC1 [Example X4, 1-(1-(2-phenylacetyl)piperidin-4-yl)-1H-benzo[d]imidazole-2(3H)-one] |  | 21.2 | 5.3 | 87.8 | −
17 | O=C(Cc1ccc(N2CCOCC2)cc1)N1CCC(n2c(=O)[nH]c3ccccc32)CC1 [GEN1-034, 1-(1-(2-(4-morpholinophenyl)acetyl)piperidin-4-yl)-1H-benzo[d]imidazole-2(3H)-one] |  |  |  |  | −
18 | N#Cc1ccc2[nH]c(=O)n(C3CCN(C(=O)Cc4ccc(C(F)(F)F)cc4)CC3)c2c1 [GEN1-010, 2-oxo-3-(1-(2-(4-(trifluoromethyl)phenyl)acetyl)piperidin-4-yl)-2,3-dihydro-1H-benzo[d]imidazole-5-carbonitrile] |  | −29.0 | 17.5 | 94.8 | +
19 | O=C1CN(C2CCN(C(=O)Cc3ccc4ncccc4c3)CC2)c2ccccc2N1 [GEN1-120, 4-(1-(2-(quinolin-6-yl)acetyl)piperidin-4-yl)-3,4-dihydroquinoxaline-2(1H)-one] |  |  |  |  | −
20 | O=c1c2ccc(-n3c(=O)[nH]c4ccccc43)cc2ccn1-c1ccc(C(F)(F)F)cc1 [GEN1-086, 6-(2-oxo-2,3-dihydro-1H-benzo[d]imidazol-1-yl)-2-(4-(trifluoromethyl)phenyl)isoquinoline-1(2H)-one] |  |  |  |  | −
21 | O=C(Cc1ccc(C(F)(F)F)cc1)N1CCC(n2c(=O)[nH]c3cccnc32)CC1 [GEN1-044, 3-(1-(2-(4-(trifluoromethyl)phenyl)acetyl)piperidin-4-yl)-1H-imidazo[4,5-b]pyridin-2(3H)-one] |  |  |  |  | +
22 | O=c1oc2ccccc2n1-c1ccn2c(=O)cc(Cc3ccc(F)cc3)cc2c1 [Example P9, 3-(2-(4-fluorobenzyl)-4-oxo-4H-quinazine-8-yl)benzo[d]oxazole-2(3H)-one] |  |  |  |  | −
23 | O=C(c1ccc(C(F)(F)F)cc1)N1CCC(n2c(=O)[nH]c3ccccc32)CC1 [GEN1-017, 1-(1-(4-(trifluoromethyl)benzoyl)piperidin-4-yl)-1H-benzo[d]imidazole-2(3H)-one] |  |  |  |  | −
